Read-outs that look alike come from different tables or passages of the source.

Assay type in all cases: biochemical
In one experiment the target is CDK6/CCND1 (Homo sapiens, UniProt Q00534). Description: CDK6 homogeneous time-resolved fluorescence (HTRF) kinase assay. The conditions noted are these: CDK6/CCND. The procedure, abridged:
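Enzyme pre-incubated 20 min at 23 °C with compound, then reacted 60 min at 23 °C with 1 mM ATP and 50 nM ULight-4E-BP1 (Thr37/46) peptide; 1 nM enzyme, 1% DMSO. EDTA-stopped, Eu-anti-phospho antibody TR-FRET read (665 nm or 665/615 ratio); 11-point half-log titration from 10 μM gave IC50.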
A general note: Time-resolved FRET reads energy transfer from a long-lived donor to a nearby acceptor.

A further experiment addresses CDK2/CCNE1 (Homo sapiens, UniProt P24941). Description: CDK2 homogeneous time-resolved fluorescence (HTRF) kinase assay. The conditions noted are these: CDK2/CCNE. The procedure, abridged: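 3 nM CDK2/CCNE1 was preincubated with compound for 20 min at 23 °C in HEPES buffer (pH not stated), then reacted 60 min with 1 mM ATP and 50 nM ULight-4E-BP1 (Thr37/46) peptide. After EDTA stop, Eu-anti-phospho-4E-BP1 antibody (2 nM) was added for 60 min and TR-FRET read at 665 nm.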

Another experiment addresses CDK1/CCNB1 (Homo sapiens, UniProt P06493). Description: CDK1 homogeneous time-resolved fluorescence (HTRF) kinase assay. The following applies: CDK1/CCNB; x = IC50 >250 nM; read-out: CDK1/CCNB IC50 (>250 nM column). A digest of the protocol: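 Kinase activity is measured as Lance signal (665 nm, or 665/615 nm ratio) from europium-labelled anti-phospho-Thr37/46 antibody binding ULight-4E-BP1 peptide. Reactions contain 0.5 nM enzyme, 1 mM ATP, 1% DMSO and run 60 min at 23 °C before EDTA quench.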

Another experiment addresses CDK4/CCND3 (Homo sapiens, UniProt P11802). The experiment can be described thus: CDK4 homogeneous time-resolved fluorescence (HTRF) kinase assay. The conditions noted are these: CDK4/CCND; x = IC50 >250 nM; read-out: CDK4/CCND IC50 (>250 nM column). A digest of the protocol: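 CDK4/CCND3 at 1.5 nM was preincubated with compound for 20 min at 23 °C, then reacted for 60 min with 1 mM ATP and 50 nM ULight-4E-BP1 (Thr37/46) peptide. The reaction was stopped with EDTA, and phosphorylation was read by HTRF with a Eu-anti-phospho antibody. IC50 values came from 11-point half-log titrations, typically from 10 μM.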

The mark [1] stands for this setting: x = IC50 >250 nM, read-out: CDK6/CCND IC50 (>250 nM column).
Setting [2] is: x = IC50 >250 nM, read-out: CDK2/CCNE IC50 (>250 nM column).
Where [3] appears, read: x = IC50 25-250 nM, read-out: CDK2/CCNE IC50 (25-250 nM).
The mark [4] stands for this setting: x = IC50 <25 nM, read-out: CDK2/CCNE IC50 (<25 nM).
Where [5] appears, read: x = IC50 25-250 nM, read-out: CDK6/CCND IC50 (25-250 nM).

CDK4/CCND3, sequence (P11802 whole entry): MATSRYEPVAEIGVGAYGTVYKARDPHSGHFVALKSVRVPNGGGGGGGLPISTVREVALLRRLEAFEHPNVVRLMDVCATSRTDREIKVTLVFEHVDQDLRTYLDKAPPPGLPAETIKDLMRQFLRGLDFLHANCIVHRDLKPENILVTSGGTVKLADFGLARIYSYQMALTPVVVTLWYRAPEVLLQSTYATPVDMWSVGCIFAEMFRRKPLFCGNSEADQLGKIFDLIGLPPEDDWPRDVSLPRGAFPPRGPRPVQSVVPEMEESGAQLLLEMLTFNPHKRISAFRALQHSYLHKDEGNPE
CDK4/CCND3, sequence (P30281 whole entry partner): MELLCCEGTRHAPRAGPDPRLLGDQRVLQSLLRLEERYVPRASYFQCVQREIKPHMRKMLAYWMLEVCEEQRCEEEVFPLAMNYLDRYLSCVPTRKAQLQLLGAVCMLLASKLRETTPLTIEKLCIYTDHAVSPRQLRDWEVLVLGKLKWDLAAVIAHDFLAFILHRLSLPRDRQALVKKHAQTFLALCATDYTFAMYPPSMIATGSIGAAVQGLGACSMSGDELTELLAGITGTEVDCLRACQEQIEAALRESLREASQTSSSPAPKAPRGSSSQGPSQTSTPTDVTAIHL
CDK1/CCNB1, sequence (P06493 whole entry): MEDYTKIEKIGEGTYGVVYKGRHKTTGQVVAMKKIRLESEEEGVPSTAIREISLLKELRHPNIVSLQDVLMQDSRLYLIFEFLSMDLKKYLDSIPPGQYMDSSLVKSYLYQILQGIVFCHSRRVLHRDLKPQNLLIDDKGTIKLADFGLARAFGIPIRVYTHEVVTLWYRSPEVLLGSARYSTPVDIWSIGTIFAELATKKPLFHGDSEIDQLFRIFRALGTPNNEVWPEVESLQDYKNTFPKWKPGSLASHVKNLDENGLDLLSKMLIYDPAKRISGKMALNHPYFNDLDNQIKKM
CDK1/CCNB1, sequence (P14635 whole entry partner): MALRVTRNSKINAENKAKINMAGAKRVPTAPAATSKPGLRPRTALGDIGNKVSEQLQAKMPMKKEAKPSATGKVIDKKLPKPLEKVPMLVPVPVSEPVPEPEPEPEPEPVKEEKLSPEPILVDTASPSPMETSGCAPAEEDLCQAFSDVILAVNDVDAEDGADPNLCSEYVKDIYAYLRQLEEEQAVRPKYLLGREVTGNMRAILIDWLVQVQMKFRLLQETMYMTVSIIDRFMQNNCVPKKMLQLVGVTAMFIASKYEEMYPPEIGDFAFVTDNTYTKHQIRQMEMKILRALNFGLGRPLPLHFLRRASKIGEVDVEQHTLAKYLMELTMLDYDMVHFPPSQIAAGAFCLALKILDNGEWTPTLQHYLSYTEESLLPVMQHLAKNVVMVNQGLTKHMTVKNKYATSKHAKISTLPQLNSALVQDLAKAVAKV
CDK6/CCND1, sequence (Q00534 whole entry): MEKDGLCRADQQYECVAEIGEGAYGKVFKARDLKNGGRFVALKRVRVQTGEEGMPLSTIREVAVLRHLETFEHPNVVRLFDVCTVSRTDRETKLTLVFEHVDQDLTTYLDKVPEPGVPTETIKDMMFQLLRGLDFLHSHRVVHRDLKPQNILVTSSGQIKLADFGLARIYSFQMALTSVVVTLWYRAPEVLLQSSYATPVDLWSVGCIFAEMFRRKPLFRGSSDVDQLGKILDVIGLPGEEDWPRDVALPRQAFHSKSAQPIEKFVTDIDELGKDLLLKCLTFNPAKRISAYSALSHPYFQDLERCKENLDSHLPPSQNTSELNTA
CDK6/CCND1, sequence (P24385 whole entry partner): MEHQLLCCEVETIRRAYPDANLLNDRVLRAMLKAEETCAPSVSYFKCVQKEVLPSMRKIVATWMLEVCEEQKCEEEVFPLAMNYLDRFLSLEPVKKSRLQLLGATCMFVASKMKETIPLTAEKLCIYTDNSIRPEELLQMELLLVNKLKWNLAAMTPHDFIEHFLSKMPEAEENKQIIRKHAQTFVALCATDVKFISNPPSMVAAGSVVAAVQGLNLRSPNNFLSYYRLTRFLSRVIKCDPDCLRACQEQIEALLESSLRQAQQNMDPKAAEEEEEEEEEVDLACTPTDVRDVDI

For `COC(=O)c1nc(C#Cc2nccc3cnc(Nc4ccc(S(C)(=O)=O)cc4)cc23)cnc1N` [Ex 588, methyl 3-amino-6-((7-((4-(methylsulfonyl)phenyl)amino)-2,6-naphthyridin-1-yl)ethynyl)pyrazine-2-carboxylate], the IC50 at CDK6/CCND1 (setting [1]), on CDK2/CCNE1 (setting [2]), on CDK1/CCNB1 and at CDK4/CCND3 was over 250 nM in each case.

Turning to `Cc1ccc(C#Cc2nccc3cnc(Nc4ccc(S(C)(=O)=O)cc4)cc23)cc1C#N` [Ex 589, 2-methyl-5-((7-((4-(methylsulfonyl)phenyl)amino)-2,6-naphthyridin-1-yl)ethynyl)benzonitrile], the IC50 at CDK6/CCND1 (setting [1]), at CDK2/CCNE1 (setting [2]), at CDK1/CCNB1 and on CDK4/CCND3 was over 250 nM throughout.

Regarding `CC(C)(O)c1ccc(C#Cc2nccc3cnc(Nc4ccc(S(C)(=O)=O)cc4)cc23)cc1` [Ex 596, 2-(4-((7-((4-(methylsulfonyl)phenyl)amino)-2,6-naphthyridin-1-yl)ethynyl)phenyl)propan-2-ol], the IC50 is over 250 nM on CDK6/CCND1 (setting [1]), 25 to 250 nM at CDK2/CCNE1 (setting [3]), over 250 nM on CDK1/CCNB1 and over 250 nM at CDK4/CCND3.

Regarding `Cc1cc2[nH]ncc2cc1-c1nccc2cnc(Nc3ccc(S(C)(=O)=O)cc3)cc12` [Ex 597, 5-(6-methyl-1H-indazol-5-yl)-N-(4-(methylsulfonyl)phenyl)-2,6-naphthyridin-3-amine], the IC50 at CDK6/CCND1 (setting [1]) is over 250 nM; at CDK2/CCNE1 (setting [3]), 25 to 250 nM; at CDK1/CCNB1 it was over 250 nM; at CDK4/CCND3, over 250 nM.

On to `CS(=O)(=O)c1ccc(Nc2cc3c(C#Cc4cccnc4N)nccc3cn2)cc1` [Ex 598, 5-((2-aminopyridin-3-yl)ethynyl)-N-(4-(methylsulfonyl)phenyl)-2,6-naphthyridin-3-amine], for which the IC50 on CDK6/CCND1 (setting [1]) was over 250 nM; at CDK2/CCNE1 (setting [4]) it was under 25 nM; at CDK1/CCNB1 it was over 250 nM; on CDK4/CCND3, over 250 nM.

In the case of `CS(=O)(=O)c1ccc(Nc2cc3c(-c4ccc5c(c4)C(=O)C(=O)N5)nccc3cn2)cc1` [Ex 600, 5-(7-((4-(methylsulfonyl)phenyl)amino)-2,6-naphthyridin-1-yl)indoline-2,3-dione], the IC50 is 25 to 250 nM at CDK6/CCND1 (setting [5]), under 25 nM at CDK2/CCNE1 (setting [4]), over 250 nM on CDK1/CCNB1 and over 250 nM on CDK4/CCND3.

`CS(=O)(=O)c1ccc(Nc2cc3c(-c4ccc5[nH]ncc5c4)nccc3cn2)cc1` [Ex 601, 5-(1H-indazol-5-yl)-N-(4-(methylsulfonyl)phenyl)-2,6-naphthyridin-3-amine]: the IC50 was over 250 nM on CDK6/CCND1 (setting [1]), 25 to 250 nM at CDK2/CCNE1 (setting [3]), over 250 nM at CDK1/CCNB1 and over 250 nM at CDK4/CCND3.

Consider `CS(=O)(=O)c1ccc(Nc2cc3c(C#Cc4ccc(O)cc4F)nccc3cn2)cc1` [Ex 602, 3-fluoro-4-((7-((4-(methylsulfonyl)phenyl)amino)-2,6-naphthyridin-1-yl)ethynyl)phenol], for which the IC50 on CDK6/CCND1 (setting [1]) was over 250 nM; at CDK2/CCNE1 (setting [4]), under 25 nM; at CDK1/CCNB1, over 250 nM; on CDK4/CCND3, over 250 nM.

Regarding `CS(=O)(=O)c1ccc(Nc2cc3c(C#Cc4ccc5ncoc5c4)nccc3cn2)cc1` [Ex 604, 5-(benzo[d]oxazol-6-ylethynyl)-N-(4-(methylsulfonyl)phenyl)-2,6-naphthyridin-3-amine], the IC50 at CDK6/CCND1 (setting [1]) is over 250 nM; on CDK2/CCNE1 (setting [3]) it was 25 to 250 nM; on CDK1/CCNB1 it was over 250 nM; on CDK4/CCND3, over 250 nM.

With `COC(=O)c1n[nH]c2cc(-c3nccc4cnc(Nc5ccc(S(C)(=O)=O)cc5)cc34)ccc12` [Ex 605, methyl 6-(7-((4-(methylsulfonyl)phenyl)amino)-2,6-naphthyridin-1-yl)-1H-indazole-3-carboxylate], the IC50 at CDK6/CCND1 (setting [5]) was 25 to 250 nM; at CDK2/CCNE1 (setting [4]), under 25 nM; on CDK1/CCNB1 it was over 250 nM; on CDK4/CCND3 it was over 250 nM.

Values taken from patent US20260325533A1, “CDK INHIBITOR COMPOUNDS” (ALEKSIA THERAPEUTICS, INC., priority 2023, published 2026).
